Experimental data published in patent US6265413A, “Camptothecin compounds and a method of preparation thereof” (priority 1995, dated 2001).
Entries after “also recorded” stand apart in the source; their conditions may differ. Where two headings read alike, the source gives them in different places.

Assays:
[1] = test system: L1210 leukemia; experiment: Prolongation effects of life span against L1210-bearing mice; format: in vivo, BDF1 mice; details: for 30 days survivor / ILS(%) / Survival days MST / B.W. Change: i.p., days 1, 3, 5; for B.W. Change: day 1 to day 5
Description: Antitumor activities were measured through the experiments on prolongation effects of life span against L1210-bearing mice and tumor growth inhibitory effects against B16-bearing mice. To evaluate the antitumor activities on L1210 leukemia, a certain number of L1210 cells (in vitro) was intraperitoneally inoculated for propagation and the L1210 cells in ascites were harvested from animals sacrificed by cervical dislocation on 7th day after tumor was implanted.
(§1) Male BDF1 mice, weighing about 20 grams, were used. Animal rooms were controlled at 23±2° C. and 60±5% relative humidity, under HEPA filter, and maintained in specific pathogen free (SPF).
5×10^5 of L1210 leukemia cell, obtained in vitro form, were intraperitoneally inoculated in BDF1 mice for propagation. The L1210 tumor cells in ascites were aseptically harvested from BDF1 mice sacrificed by cervical dislocation on 7th day after tumor implantation.
The tumor cells were passaged at least three times prior to use in the test.
5×10^5 cell were intraperitoneally inoculated into BDF1 mice on day 0 and the sample ([…]) were intraperitoneally administration on days 1, 3 and 5. six mice were used for each experimental group.
Antitumor activities were evaluated by the mean survival time of a group of mice and also expressed by the ILS(%) value and the mean animal weights for day 1 and day 5.
Increased Life span (ILS)
ILS(%)={(MST of sample treated group/MST of solvent group)-1}×100

[2] = test system: B16 melanoma; format: in vivo, BDF1 mice; details: for IR (%) on tumor size / IR (%) on tumor weight / Tumor weight day 20 / Tumor size day 8 / Tumor size day 12 / Tumor size day 16 / Tumor size day 20: days 8, 12, 16; for IR (%) on tumor size / IR (%) on tumor weight: day 20; for Tumor weight day 20: in g (unit assumed); for Tumor size day 8 / Tumor size day 12 / Tumor size day 16 / Tumor size day 20: in mm³ (unit assumed)
Description: To investigate tumor growth inhibitory effects against B16 melanoma, a certain number of B16 cells(in vitro) was subcutaneously inoculated for propagation and tumor cells were resected from animals scrificed by cervical dislocation on 14th day after tumor was implanted.
as §1
10^6 of B16 melanoma cell, obtained in vitro form, were subcutaneously in BDF1 mice for propagation. The B16 melanomas were transfered on day 14. The fresh tumors except for necrotized center were aseptically resected from tumor-bearing mice sacrificed by cervical dislocation.
The tumor cells were passaged at least […] three times prior to use in the test.
1 g subcutaneously donor tumor to be subcutaneously was homogenized in cold sterilized saline to give a final concentration of 1 g/10 ml. The 1:10 tumor suspension is injected into all BDF1 mice subcutaneously using 0.2 ml/mouse.
The mice were subcutaneously implanted with such homogenized solution and 7 to 8th day after the tumor implantation, the mice having a certain size of tumors were selected for experiments. Each experimental group were administered with the sample (0.1 ml/10 g) on 8th, 12th and 16th day after the inoculation of tumor. Eight mice were used for each experimental group.
The size of the tumors was calculated by direct measurement of the diameter of the tumors, using the formula.
Where b is the largest diameter and a is the diameter perpendicular to b and growth curves were thus obtained. (FIG. 2)
The inhibition rate of tumor growth on the basis of tumor size was calculated according to the formula.
TWt is the mean tumor volume(weight) of sample-treated groups.
TWc is the mean tumor volume(weight) of control group.

[3] = background art; cited from earlier work
[4] = test system: topoisomerase I; details: background art; cited from earlier work

With `CCC1(O)C(=O)OCc2c1cc1n(c2=O)Cc2c-1nc1ccccc1c2CCN(Cc1ccccc1)C(=O)OCc1ccccc1` (racemic) [Example 18, dl-7-[2-(N-benzyl-N-carbobenzyloxyamino)ethyl]camptothecin] the 30 days survivor ([1]; total dose 10 mg/kg) was 0/6, the “ILS(%)” value ([1]; total dose 10 mg/kg) was 33% and the “Survival days MST” value ([1]; total dose 10 mg/kg) was 13.00 days. For the same compound, the “B.W. Change” value ([1]; total dose 10 mg/kg) was -0.25 g, the 30 days survivor ([1]; total dose 50 mg/kg) was 0/6 and the “ILS(%)” value ([1]; total dose 50 mg/kg) was 64%. For the same compound, the “Survival days MST” value ([1]; total dose 50 mg/kg) was 16.00 days and the “B.W. Change” value ([1]; total dose 50 mg/kg) was -0.80 g.
For `CCC1(O)C(=O)OCc2c1cc1n(c2=O)Cc2c-1nc1ccccc1c2CCNC(C)C` (racemic) [Example 30, dl-7-[2-(N-isopropylamino)ethyl]camptothecin], the “IR (%) on tumor size” value ([2]; 35 mg/kg) was 27%, the “IR (%) on tumor weight” value ([2]; 35 mg/kg) was 40% and the “Tumor weight day 20” value ([2]; 35 mg/kg) was 2.34 ± 0.44. The “Tumor size day 8” value ([2]; 35 mg/kg) was 86.93 ± 11.34, the “Tumor size day 12” value ([2]; 35 mg/kg) was 411.88 ± 71.52 and the “Tumor size day 16” value ([2]; 35 mg/kg) was 1234.65 ± 182.64. For the same compound, the “Tumor size day 20” value ([2]; 35 mg/kg) was 3061.34 ± 752.34, the “IR (%) on tumor size” value ([2]; 70 mg/kg) was 54.8% and the “IR (%) on tumor weight” value ([2]; 70 mg/kg) was 56%. For the same compound, the “Tumor weight day 20” value ([2]; 70 mg/kg) was 1.71 ± 0.18, the “Tumor size day 8” value ([2]; 70 mg/kg) was 86.21 and the “Tumor size day 12” value ([2]; 70 mg/kg) was 320.06. For the same compound, the “Tumor size day 16” value ([2]; 70 mg/kg) was 870.46, the “Tumor size day 20” value ([2]; 70 mg/kg) was 1897.88 and the “IR (%) on tumor size” value ([2]; 140 mg/kg) was 67.72%. The “IR (%) on tumor weight” value ([2]; 140 mg/kg) was 71.6%, the “Tumor weight day 20” value ([2]; 140 mg/kg) was 1.11 ± 0.21 and the “Tumor size day 8” value ([2]; 140 mg/kg) was 86.94 ± 9.34. The “Tumor size day 12” value ([2]; 140 mg/kg) was 328.98 ± 76.57, the “Tumor size day 16” value ([2]; 140 mg/kg) was 695.75 ± 82.77 and the “Tumor size day 20” value ([2]; 140 mg/kg) was 1353.91 ± 134.36. For the same compound, the “antitumor activity, comparison in words” value ([2]; ascites and solid type tumor, compared with camptothecin) was “better antitumor activity on ascites tumor and solid type tumor”, the “toxicity and safety margin, comparison in words” value ([2]; mouse, in vivo) was “less toxicity and a wide range of safety margin” and the “ILS(%) and dose range, comparison in words” value ([1]; compared with other compounds / camptothecin (FIG. 1)) was “better dose dependency and ILS(%) than other compound; also recorded: higher ILS(%) and wider range where the effect was siginificant”. The 30 days survivor ([1]; total dose 8.75 mg/kg) was 0/6, the “ILS(%)” value ([1]; total dose 8.75 mg/kg) was 58.7% and the “Survival days MST” value ([1]; total dose 8.75 mg/kg) was 15.67 days. For the same compound, the “B.W. Change” value ([1]; total dose 8.75 mg/kg) was “+0.7 g”, the 30 days survivor ([1]; total dose 10 mg/kg) was 0/6 and the “ILS(%)” value ([1]; total dose 10 mg/kg) was 42%. The “Survival days MST” value ([1]; total dose 10 mg/kg) was 13.00 days, the “B.W. Change” value ([1]; total dose 10 mg/kg) was -0.71 g and the 30 days survivor ([1]; total dose 17.5 mg/kg) was 0/6. The “Survival days MST” value ([1]; total dose 17.5 mg/kg) was 17.75 days, the “B.W. Change” value ([1]; total dose 17.5 mg/kg) was “+0.45 g” and the 30 days survivor ([1]; total dose 35 mg/kg) was 0/6. The “ILS(%)” value ([1]; total dose 35 mg/kg) was 92.4%, the “Survival days MST” value ([1]; total dose 35 mg/kg) was 19.00 days and the “B.W. Change” value ([1]; total dose 35 mg/kg) was -0.12 g. The 30 days survivor ([1]; total dose 50 mg/kg) was 0/6, the “ILS(%)” value ([1]; total dose 50 mg/kg) was 119% and the “Survival days MST” value ([1]; total dose 50 mg/kg) was 20.00 days. The “B.W. Change” value ([1]; total dose 50 mg/kg) was -0.57 g, the 30 days survivor ([1]; total dose 70 mg/kg) was 0/6 and the “ILS(%)” value ([1]; total dose 70 mg/kg) was 143%. The “Survival days MST” value ([1]; total dose 70 mg/kg) was 24.00 days, the “B.W. Change” value ([1]; total dose 70 mg/kg) was -0.79 g and the 30 days survivor ([1]; total dose 140 mg/kg) was 0/6. For the same compound, the “ILS(%)” value ([1]; total dose 140 mg/kg) was 110%, the “Survival days MST” value ([1]; total dose 140 mg/kg) was 20.75 days and the “B.W. Change” value ([1]; total dose 140 mg/kg) was -0.93 g.
In the case of `CCc1c2c(nc3ccc(OC(=O)N4CCC(N5CCCCC5)CC4)cc13)-c1cc3c(c(=O)n1C2)COC(=O)[C@]3(O)CC` [CPT-11], the “antineoplastic activity in clinical trial / treatment” value [3] is given as “excellent antineoplastic activities”.
For `CC[C@@]1(O)C(=O)OCc2c1cc1n(c2=O)Cc2cc3ccccc3nc2-1` [Camptothecin, camptothecin], the “IR (%) on tumor size” value ([2]; 10 mg/kg) was 57.8%, the “IR (%) on tumor weight” value ([2]; 10 mg/kg) was 59% and the “Tumor weight day 20” value ([2]; 10 mg/kg) was 1.61 ± 0.30. For the same compound, the “Tumor size day 8” value ([2]; 10 mg/kg) was 85.95 ± 13.15, the “Tumor size day 12” value ([2]; 10 mg/kg) was 458.56 ± 53.87 and the “Tumor size day 16” value ([2]; 10 mg/kg) was 1035.98 ± 129.36. The “Tumor size day 20” value ([2]; 10 mg/kg) was 1775.50 ± 300.91, the “mode of action on topoisomerase I” value [4] was “specific mode of action to inhibit topoisomerase I; also recorded: binds covalently with topoisomerase I” and the “toxicity in clinical trial” value [3] was “severe toxicity”.
In the case of `CCC1(O)C(=O)OCc2c1cc1n(c2=O)Cc2c-1nc1ccccc1c2CCNCc1ccccc1` (racemic) [Example 26, dl-7-[2-(N-benzylamino)ethyl]camptothecin], the 30 days survivor ([1]; total dose 10 mg/kg) is reported as 0/6, the “ILS(%)” value ([1]; total dose 10 mg/kg) is reported as 72% and the “Survival days MST” value ([1]; total dose 10 mg/kg) is reported as 15.67 days. For the same compound, the “B.W. Change” value ([1]; total dose 10 mg/kg) was -0.09 g, the 30 days survivor ([1]; total dose 50 mg/kg) was 0/6 and the “ILS(%)” value ([1]; total dose 50 mg/kg) was 75%. For the same compound, the “Survival days MST” value ([1]; total dose 50 mg/kg) was 16.00 days and the “B.W. Change” value ([1]; total dose 50 mg/kg) was -0.57 g.
